Measurements reported in the NIST ThermoML archive (doi:10.1021/je7000182).
± gives the expanded uncertainty stated by the source.

How the values were obtained:
[1] = for mass density: 101 kPa, Liquid
[2] = xn = mol fraction of the nth substance listed; conditions: x2 = 0; for mass density: 101 kPa, Liquid

Structure (SMILES): CC(C)=O [acetone]
- surface tension liquid-gas ([1]; 288.15 K, Pendant drop shape): 24.34 ± 0.31 mN/m
- mass density ([1]; 288.15 K): 795.65 ± 0.34 kg/m3
- mass density ([1]; 293.15 K): 790.04 ± 0.34 kg/m3
- surface tension liquid-gas ([1]; 298.15 K, Pendant drop shape): 23.02 ± 0.31 mN/m
- mass density ([1]; 298.15 K): 784.33 ± 0.35 kg/m3
- mass density ([1]; 303.15 K): 778.57 ± 0.36 kg/m3
- surface tension liquid-gas ([1]; 308.15 K, Pendant drop shape): 21.72 ± 0.3 mN/m
- mass density ([1]; 308.15 K): 772.76 ± 0.36 kg/m3
- mass density ([1]; 313.15 K): 766.91 ± 0.37 kg/m3
- surface tension liquid-gas ([1]; 318.15 K, Pendant drop shape): 20.38 ± 0.29 mN/m
- mass density ([1]; 318.15 K): 760.99 ± 0.38 kg/m3
- mass density ([1]; 323.15 K): 755.02 ± 0.39 kg/m3
- surface tension liquid-gas ([1]; 328.15 K, Pendant drop shape): 19.15 ± 0.29 mN/m
- mass density ([1]; 328.15 K): 748.98 ± 0.39 kg/m3

Structure (SMILES): O [water] + CC(C)=O
- surface tension liquid-gas ([2]; 288.15 K, Pendant drop shape): 73.49 ± 0.65 mN/m
- surface tension liquid-gas ([2]; 298.15 K, Pendant drop shape): 71.98 ± 0.64 mN/m
- surface tension liquid-gas ([2]; 308.15 K, Pendant drop shape): 70.41 ± 0.63 mN/m
- surface tension liquid-gas ([2]; 318.15 K, Pendant drop shape): 68.78 ± 0.61 mN/m
- mass density ([2]; 323.15 K): 988.01 ± 0.15 kg/m3
- surface tension liquid-gas ([2]; 328.15 K, Pendant drop shape): 67.09 ± 0.6 mN/m
- mass density ([2]; 328.15 K): 985.69 ± 0.15 kg/m3

Structure (SMILES): Cc1ccccc1 [toluene]
- surface tension liquid-gas ([1]; 288.15 K): 28.9 ± 0.6 mN/m
- mass density ([1]; 288.15 K): 871.41 ± 0.25 kg/m3
- mass density ([1]; 293.15 K): 866.77 ± 0.26 kg/m3
- surface tension liquid-gas ([1]; 298.15 K): 27.76 ± 0.59 mN/m
- mass density ([1]; 298.15 K): 862.12 ± 0.26 kg/m3
- mass density ([1]; 303.15 K): 857.46 ± 0.27 kg/m3
- surface tension liquid-gas ([1]; 308.15 K): 26.77 ± 0.57 mN/m
- mass density ([1]; 308.15 K): 852.78 ± 0.27 kg/m3
- mass density ([1]; 313.15 K): 848.08 ± 0.28 kg/m3
- surface tension liquid-gas ([1]; 318.15 K): 25.72 ± 0.55 mN/m
- mass density ([1]; 318.15 K): 843.37 ± 0.29 kg/m3
- mass density ([1]; 323.15 K): 838.64 ± 0.29 kg/m3
- surface tension liquid-gas ([1]; 328.15 K): 24.27 ± 0.53 mN/m
- mass density ([1]; 328.15 K): 833.9 ± 0.3 kg/m3

Structure (SMILES): Cc1ccccc1 [toluene] + CC(C)=O
- surface tension liquid-gas ([2]; 288.15 K): 28.9 ± 0.6 mN/m
- mass density ([2]; 288.15 K): 871.41 ± 0.25 kg/m3
- mass density ([2]; 293.15 K): 866.77 ± 0.26 kg/m3
- surface tension liquid-gas ([2]; 298.15 K): 27.76 ± 0.59 mN/m
- mass density ([2]; 298.15 K): 862.12 ± 0.26 kg/m3
- mass density ([2]; 303.15 K): 857.46 ± 0.27 kg/m3
- surface tension liquid-gas ([2]; 308.15 K): 26.77 ± 0.57 mN/m
- mass density ([2]; 308.15 K): 852.78 ± 0.27 kg/m3
- mass density ([2]; 313.15 K): 848.08 ± 0.28 kg/m3
- surface tension liquid-gas ([2]; 318.15 K): 25.72 ± 0.55 mN/m
- mass density ([2]; 318.15 K): 843.37 ± 0.29 kg/m3
- mass density ([2]; 323.15 K): 838.64 ± 0.29 kg/m3
- surface tension liquid-gas ([2]; 328.15 K): 24.27 ± 0.53 mN/m
- mass density ([2]; 328.15 K): 833.9 ± 0.3 kg/m3
